Reference: PMC10202811 (Nature Medicine, 2023)
Where two headings read alike, the source gives them in different places.

Assay: Plasma pharmacokinetics of lorlatinib at steady state (LC-MS/MS, non-compartmental analysis)
Type: in vivo, human
Details: human; for Cmax: read-out: Cmax; for Tmax: read-out: Tmax
From the text: Lorlatinib was isolated from human plasma by a liquid-iquid extraction procedure. […] A linear-log trapezoidal method was used [NT] A best-fit method was used to estimate terminal elimination and to extrapolate any plasma concentration versus time profiles to compute [NT].

[1] = in vivo, 115 mg/m2, Cycle 1 Day 1, Cohort B2, 115 mg/m2 per dose
[2] = in vivo, 115 mg/m2, Cycle 1 Day 1, Cohort A1, 115 mg/m2 per dose, individual patients
[3] = in vivo, 115 mg/m2, Cycle 1 Day 1, patient N0773, Cohort B2, 115 mg/m2 per dose, Dose 75
[4] = in vivo, 115 mg/m2, Cycle 1 Day 15, Cohort A1, 115 mg/m2 per dose, individual patients
[5] = in vivo, 115 mg/m2, Cycle 1 Day 15, patient N0773, Cohort B2, 115 mg/m2 per dose, Dose 75
[6] = plasma, oral, 45 mg/m2, Cohort A1, 45 mg/m2 per dose, C1D15, Geometric Mean, N 3
[7] = plasma, oral, 45 mg/m2, Cohort A1, 45 mg/m2 per dose, C1D15, Median, N 3
[8] = plasma, oral, 45 mg/m2, Cycle 1 Day 1, Cohort A1, 45 mg/m2 per dose, individual patients
[9] = plasma, oral, 60 mg/m2, Cohort A1, 60 mg/m2 per dose, C1D15, Median, N 3

C[C@H]1Oc2cc(cnc2N)-c2c(nn(C)c2C#N)CN(C)C(=O)c2ccc(F)cc21 [Lorlatinib, (10R)-7-amino-12-fluoro-2,10,16-trimethyl-15-oxo-10,15,16,17-tetrahydro-2H-8,4-(metheno)pyrazolo[4,3-h][2,5,11]-benzoxadiazacyclotetradecine-3-carbonitrile]
AUC (in vivo, 115 mg/m2, Cycle 1 Day 1, Cohort B2, 115 mg/m2 per dose, read-out: AUCall): 17700 ng·h/mL | Cmax [1]: 2320 ng/mL | Tmax [1]: 1 h | AUC(0-t) [2]: 14700 ng·h/mL | MRT last [2]: 8.5 h | AUC (in vivo, 115 mg/m2, Cycle 1 Day 1, Cohort A1, 115 mg/m2 per dose, individual patients, read-out: AUCall): 14700 ng·h/mL | Cmax [2]: 1440 ng/mL | Tmax [2]: 2 h | AUC(0-t) [3]: 10800 ng·h/mL | MRT last [3]: 8.24 h | AUC (in vivo, 115 mg/m2, Cycle 1 Day 1, patient N0773, Cohort B2, 115 mg/m2 per dose, Dose 75, read-out: AUCall): 10800 ng·h/mL | Cmax [3]: 1660 ng/mL | MRT inf (in vivo, 115 mg/m2, Cycle 1 Day 15, Cohort A1, 115 mg/m2 per dose, read-out: MRTINF_obs): 11.7 h | MRT inf (in vivo, 115 mg/m2, Cycle 1 Day 15, Cohort A1, 115 mg/m2 per dose, read-out: MRTINF_pred): 11.7 h | MRT inf (in vivo, 115 mg/m2, Cycle 1 Day 15, Cohort B2, 115 mg/m2 per dose, read-out: MRTINF_obs): 13.5 h | MRT inf (in vivo, 115 mg/m2, Cycle 1 Day 15, Cohort B2, 115 mg/m2 per dose, read-out: MRTINF_pred): 13.5 h | Tmax (in vivo, 115 mg/m2, Cycle 1 Day 15, Cohort B2, 115 mg/m2 per dose): 1 h | AUC(0-t) [4]: 8210 ng·h/mL | AUC(0-inf) (in vivo, 115 mg/m2, Cycle 1 Day 15, Cohort A1, 115 mg/m2 per dose, individual patients, read-out: AUCINF_obs): 10800 ng·h/mL | AUC(0-inf) (in vivo, 115 mg/m2, Cycle 1 Day 15, Cohort A1, 115 mg/m2 per dose, individual patients, read-out: AUCINF_pred): 10700 ng·h/mL | AUC (in vivo, 115 mg/m2, Cycle 1 Day 15, Cohort A1, 115 mg/m2 per dose, individual patients, read-out: AUC_TAU): 8210 ng·h/mL | AUC (in vivo, 115 mg/m2, Cycle 1 Day 15, Cohort A1, 115 mg/m2 per dose, individual patients, read-out: AUCall): 8210 ng·h/mL | Cmax [4]: 1350 ng/mL | MRT inf (in vivo, 115 mg/m2, Cycle 1 Day 15, Cohort A1, 115 mg/m2 per dose, individual patients, read-out: MRTINF_obs): 15.8 h | MRT inf (in vivo, 115 mg/m2, Cycle 1 Day 15, Cohort A1, 115 mg/m2 per dose, individual patients, read-out: MRTINF_pred): 15.7 h | AUC(0-t) [5]: 5370 ng·h/mL | AUC(0-inf) (in vivo, 115 mg/m2, Cycle 1 Day 15, patient N0773, Cohort B2, 115 mg/m2 per dose, Dose 75, read-out: AUCINF_obs): 6990 ng·h/mL | AUC(0-inf) (in vivo, 115 mg/m2, Cycle 1 Day 15, patient N0773, Cohort B2, 115 mg/m2 per dose, Dose 75, read-out: AUCINF_pred): 6860 ng·h/mL | AUC (in vivo, 115 mg/m2, Cycle 1 Day 15, patient N0773, Cohort B2, 115 mg/m2 per dose, Dose 75, read-out: AUC_TAU): 6950 ng·h/mL | AUC (in vivo, 115 mg/m2, Cycle 1 Day 15, patient N0773, Cohort B2, 115 mg/m2 per dose, Dose 75, read-out: AUCall): 5370 ng·h/mL | Cmax [5]: 1780 ng/mL | MRT inf (in vivo, 115 mg/m2, Cycle 1 Day 15, patient N0773, Cohort B2, 115 mg/m2 per dose, Dose 75, read-out: MRTINF_obs): 4.18 h | MRT inf (in vivo, 115 mg/m2, Cycle 1 Day 15, patient N0773, Cohort B2, 115 mg/m2 per dose, Dose 75, read-out: MRTINF_pred): 3.73 h | AUC (in vivo, 115 mg/m2, steady state, Cohort A1, 115 mg/m^2 QD, (CV), read-out: AUCtau): 8640 ng·h/mL | Cmax (in vivo, 115 mg/m2, steady state, Cohort A1, 115 mg/m^2 QD, (CV)): 1210 ng/mL | Tmax (in vivo, 115 mg/m2, steady state, Cohort A1, 115 mg/m^2 QD): 1.5 h | AUC (in vivo, 115 mg/m2, steady state, Cohort B2 (with topotecan/cyclophosphamide), 115 mg/m^2 QD, (CV), read-out: AUCtau): 7950 ng·h/mL | Cmax (in vivo, 115 mg/m2, steady state, Cohort B2 (with topotecan/cyclophosphamide), 115 mg/m^2 QD, (CV)): 1460 ng/mL | Tmax (in vivo, 115 mg/m2, steady state, Cohort B2 (with topotecan/cyclophosphamide), 115 mg/m^2 QD): 1 h | AUC (in vivo, 150 mg per dose, Cycle 1 Day 1, Cohort A2, 150 mg per dose, read-out: AUCall): 8360 ng·h/mL | AUC (in vivo, 150 mg per dose, Cycle 1 Day 15, Cohort A2, 150 mg per dose, read-out: AUCall): 8300 ng·h/mL | AUC (in vivo, 150 mg, Cycle 1 Day 15, Cohort A2, 150 mg per dose, read-out: AUC_TAU): 8300 ng·h/mL | AUC (plasma, oral, 45 mg/m2, Cohort A1, 45 mg/m2 per dose, C1D15, Geometric Mean, N 3, read-out: AUC_TAU): 2470 ng·h/mL | Cmax [6]: 355 ng/mL | Tmax [6]: 1.26 h | AUC (plasma, oral, 45 mg/m2, Cohort A1, 45 mg/m2 per dose, C1D15, Median, N 3, read-out: AUC_TAU): 3220 ng·h/mL | Cmax [7]: 287 ng/mL | Tmax [7]: 1 h | Tmax (plasma, oral, 45 mg/m2, Cohort A1, 45 mg/m2 per dose, C1D15, individual patient): 1 h | MRT last [8]: 7.18 h | Tmax [8]: 1 h | Tmax (plasma, oral, 45 mg/m2, Cycle 1 Day 15, Cohort A1, 45 mg/m2 per dose, individual patients): 1 h | AUC (plasma, oral, 45 mg/m^2, steady state (cycle 1, day 15), Cohort A1, 45 mg/m^2 QD, (CV), read-out: AUCtau): 2470 ng·h/mL | Cmax (plasma, oral, 45 mg/m^2, steady state (cycle 1, day 15), Cohort A1, 45 mg/m^2 QD, (CV)): 354 ng/mL | Tmax (plasma, oral, 45 mg/m^2, steady state (cycle 1, day 15), Cohort A1, 45 mg/m^2 QD): 1 h | AUC (plasma, oral, 60 mg/m2, Cohort A1, 60 mg/m2 per dose, C1D15, Geometric Mean, N 3, read-out: AUC_TAU): 3930 ng·h/mL | Cmax (plasma, oral, 60 mg/m2, Cohort A1, 60 mg/m2 per dose, C1D15, Geometric Mean, N 3): 492 ng/mL | AUC (plasma, oral, 60 mg/m2, Cohort A1, 60 mg/m2 per dose, C1D15, Median, N 3, read-out: AUC_TAU): 4140 ng·h/mL | Cmax [9]: 558 ng/mL | Tmax [9]: 2 h | AUC (plasma, oral, 60 mg/m2, Cohort A1, 60 mg/m2 per dose, C1D15, individual patient, read-out: AUC_TAU): 4140 ng·h/mL
